# Assay results: paper PMC8286840, “Identifying SARS-CoV-2 antiviral compounds by screening for small molecule inhibitors of Nsp3 papain-like protease” (Biochemical Journal, 2021)
# Counter-ions that a name gives are not always drawn. Like-named read-outs stand apart in the source and are kept apart here.
# Experiments:
# [1] = biological target: T1, SARS-CoV-2 PLpro (nsp3 1564–1878) (Severe acute respiratory syndrome coronavirus 2, UniProt P0DTD1); test: biochemical; parameters: FRET-quenched peptide (Pro3) cleavage by PLpro, 10 min pre-incubation, slope over 20 min, normalised to no-compound control; settings: low concentration screen, read-out: % of control remaining
# [2] = biological target: T1, SARS-CoV-2 PLpro (nsp3 1564–1878); test: biochemical; parameters: FRET-quenched peptide (Pro3) cleavage by PLpro, 10 min pre-incubation, slope over 20 min, normalised to no-compound control; settings: high concentration screen, read-out: % of control remaining
smiles,measurement,setting,value
CCCCc1nc2c(N)nc3ccccc3c2n1Cc1ccc(CN)cc1 [TLR7/8 agonist 1 (dihydrochloride)],remaining activity at 1.25 µM,[1]; Well no.=8259,102%
same,remaining activity at 3.75 µM,[2]; Well no.=8259,99.6%
CCCCCCCCCCCCCCCCOCC(COP(=O)([O-])OCC[N+](C)(C)C)OC (stereo not drawn) [1-Hexadecyl-2-methylglycero-3 PC],remaining activity at 1.25 µM,[1]; Well no.=4259,95.4%
same,remaining activity at 3.75 µM,[2]; Well no.=4259,92%
Cc1cnc(-c2cc(N3CCN(C(=O)CCS(C)(=O)=O)CC3)ncc2Cl)c(C)c1 [PF-5274857],remaining activity at 1.25 µM,[1]; Well no.=4739,99.5%
same,remaining activity at 3.75 µM,[2]; Well no.=4739,102%
CCCn1c(=O)[nH]c(=O)c2[nH]cnc21 [3-n-Propylxanthine],remaining activity at 1.25 µM,[1]; Well no.=910,105%
same,remaining activity at 3.75 µM,[2]; Well no.=910,104%
"OC[C@H]1NC[C@@H](O)[C@@H]1O [1,4-Dideoxy-1,4-imino-D-arabinitol]",remaining activity at 1.25 µM,[1]; Well no.=589,102%
same,remaining activity at 3.75 µM,[2]; Well no.=589,100%
N[C@@H](CCC(=O)O)C(=O)O [L-Glutamic acid hydrochloride],remaining activity at 1.25 µM,[1]; Well no.=619,102%
same,remaining activity at 3.75 µM,[2]; Well no.=619,97.5%
C=CCN1CCCC1CNC(=O)c1cc(S(N)(=O)=O)cc(OC)c1OC (stereo not drawn) [Veralipride],remaining activity at 1.25 µM,[1]; Well no.=7715,93.1%
same,remaining activity at 3.75 µM,[2]; Well no.=7715,97.9%
Cc1ccc(S(=O)(=O)Cc2nc(-c3ccc(C(=O)NCc4cccnc4)cc3)oc2C)cc1 [STF-118804],remaining activity at 1.25 µM,[1]; Well no.=5552,90.7%
same,remaining activity at 3.75 µM,[2]; Well no.=5552,91.7%
C[C@H](C#Cc1ccc(Cc2ccc(F)cc2)s1)N(O)C(N)=O [N-{(1R)-3-[5-(4-fluorobenzyl)-2-thienyl]-1-methyl-2-propynyl}-N-hydroxyurea],remaining activity at 1.25 µM,[1]; Well no.=5434,99.4%
same,remaining activity at 3.75 µM,[2]; Well no.=5434,103%
C1CCC(C(CC2CCCCN2)C2CCCCC2)CC1 (stereo not drawn) [Perhexiline maleate salt],remaining activity at 1.25 µM,[1]; Well no.=5958,97.2%
same,remaining activity at 3.75 µM,[2]; Well no.=5958,95.4%
CN1c2c([nH]c(N)nc2=O)NC[C@@H]1CNc1ccc(C(=O)N[C@@H](CCC(=O)O)C(=O)O)cc1 [Levomefolic acid],remaining activity at 1.25 µM,[1]; Well no.=7940,101%
same,remaining activity at 3.75 µM,[2]; Well no.=7940,101%
C[C@H]1[C@H](C)CC[C@]2(C(=O)O)CC[C@]3(C)C(=CC[C@@H]4[C@@]5(C)C[C@@H](O)[C@H](O)[C@@](C)(CO)[C@@H]5CC[C@]43C)[C@H]12 [Asiatic acid],remaining activity at 1.25 µM,[1]; Well no.=3509,100%
same,remaining activity at 3.75 µM,[2]; Well no.=3509,103%
Nc1ncnc2c1c(-c1cnc3[nH]ccc3c1)nn2C1CCCC1 [PP-121],remaining activity at 1.25 µM,[1]; Well no.=4958,91%
same,remaining activity at 3.75 µM,[2]; Well no.=4958,92.2%
Nc1nonc1C(=Nc1ccc(F)c(Cl)c1)NO [IDO5L],remaining activity at 1.25 µM,[1]; Well no.=8263,107%
same,remaining activity at 3.75 µM,[2]; Well no.=8263,103%
CN(C)CC/C=C1/c2ccccc2COc2ccc(CC(=O)O)cc21 [Olopatadine (hydrochloride)],remaining activity at 1.25 µM,[1]; Well no.=8201,104%
same,remaining activity at 3.75 µM,[2]; Well no.=8201,102%
COc1cc(C=C(C#N)C#N)cc(O)c1O [Tyrphostin AG 34],remaining activity at 1.25 µM,[1]; Well no.=1387,102%
same,remaining activity at 3.75 µM,[2]; Well no.=1387,101%
CSc1ccc(C(=O)c2[nH]c(=O)[nH]c2C)cc1 [Enoximone],remaining activity at 1.25 µM,[1]; Well no.=406,103%
same,remaining activity at 3.75 µM,[2]; Well no.=406,102%
CNCC[C@@H](Oc1ccccc1C)c1ccccc1 [Tomoxetine],remaining activity at 1.25 µM,[1]; Well no.=1182,99.4%
same,remaining activity at 3.75 µM,[2]; Well no.=1182,95.7%
C=CCNC1=C2C[C@@H](C)C[C@H](OC)[C@H](O)[C@@H](C)/C=C(\C)[C@H](OC(N)=O)[C@@H](OC)/C=C\C=C(/C)C(=O)NC(=CC1=O)C2=O [Tanespimycin (17-AAG)],remaining activity at 1.25 µM,[1]; Well no.=8932,88%
same,remaining activity at 3.75 µM,[2]; Well no.=8932,84.1%
O=Nc1c(-c2c(O)[nH]c3cc(Br)ccc23)[nH]c2ccccc12 [GSK-3 Inhibitor IX],remaining activity at 1.25 µM,[1]; Well no.=2466,95.8%
same,remaining activity at 3.75 µM,[2]; Well no.=2466,98.6%
COc1ccc(CC2NCCc3cc(OC)c(OC)cc32)cc1OC (stereo not drawn) [Tetrahydropapaverine HCl],remaining activity at 1.25 µM,[1]; Well no.=8290,99.5%
same,remaining activity at 3.75 µM,[2]; Well no.=8290,98%
CC(C)[C@@]1(NC(=O)[C@@H]2C[C@@H]3c4cccc5[nH]cc(c45)C[C@H]3N(C)C2)O[C@@]2(O)[C@@H]3CCCN3C(=O)[C@H](Cc3ccccc3)N2C1=O [Dihydroergocristine mesylate],remaining activity at 1.25 µM,[1]; Well no.=3231,108%
same,remaining activity at 3.75 µM,[2]; Well no.=3231,105%
CCN(CC)CCOc1ccc(C(=C(Cl)c2ccccc2)c2ccccc2)cc1 [Clomiphene],remaining activity at 1.25 µM,[1]; Well no.=2273,96.5%
same,remaining activity at 3.75 µM,[2]; Well no.=2273,96.3%
CC[C@@H]1/C=C/C=C/C[C@H](C)[C@H](O)[C@](C)(O)C(=O)[C@H](C)[C@@H](O)[C@H](C)C(=O)[C@H](C)[C@@H](O)[C@H](C)/C=C/C(=O)O[C@H]2[C@@H](C)[C@@H](CC1)O[C@@]1(CC[C@@H](C)[C@@H](C[C@H](C)O)O1)[C@@H]2C [Oligomycin A],remaining activity at 1.25 µM,[1]; Well no.=850,105%
same,remaining activity at 1.25 µM,[1]; Well no.=3423,98.1%
same,remaining activity at 3.75 µM,[2]; Well no.=850,103%
same,remaining activity at 3.75 µM,[2]; Well no.=3423,96.5%
CO[C@]12C[C@@H](COC(=O)c3cncc(Br)c3)CN(C)[C@@H]1Cc1cn(C)c3cccc2c13 [Nicergoline],remaining activity at 1.25 µM,[1]; Well no.=1731,99.4%
same,remaining activity at 1.25 µM,[1]; Well no.=6958,102%
same,remaining activity at 3.75 µM,[2]; Well no.=1731,102%
same,remaining activity at 3.75 µM,[2]; Well no.=6958,109%
Cc1cnc(NC(=O)C2=C(O)c3ccccc3S(=O)(=O)N2C)s1 [Meloxicam],remaining activity at 1.25 µM,[1]; Well no.=1578,94.4%
same,remaining activity at 3.75 µM,[2]; Well no.=1578,96.6%
CNC(=O)c1c(F)cccc1Nc1nc(Nc2cc3c(ccn3C(=O)CN(C)C)cc2OC)nc2[nH]ccc12 [GSK1838705A],remaining activity at 1.25 µM,[1]; Well no.=5310,98%
same,remaining activity at 3.75 µM,[2]; Well no.=5310,92%
N=C(N)SCCc1ccc(OCc2ccc([N+](=O)[O-])cc2)cc1 [KB-R7943],remaining activity at 1.25 µM,[1]; Well no.=5823,105%
same,remaining activity at 3.75 µM,[2]; Well no.=5823,106%
CN1CCN(C(=O)c2cc3cc(Cl)ccc3[nH]2)CC1 [JNJ-7777120],remaining activity at 1.25 µM,[1]; Well no.=5217,101%
same,remaining activity at 1.25 µM,[1]; Well no.=6949,103%
same,remaining activity at 3.75 µM,[2]; Well no.=5217,104%
same,remaining activity at 3.75 µM,[2]; Well no.=6949,96%
O=C(N[C@@H](Cc1ccccc1)C(=O)CCl)OCc1ccccc1 [Z-L-Phe chloromethyl ketone],remaining activity at 1.25 µM,[1]; Well no.=238,100%
same,remaining activity at 3.75 µM,[2]; Well no.=238,101%
COc1cc(Nc2ncc3c(n2)-c2ccc(Cl)cc2C(c2c(F)cccc2OC)=NC3)ccc1C(=O)O [Alisertib],remaining activity at 1.25 µM,[1]; Well no.=6164,103%
same,remaining activity at 3.75 µM,[2]; Well no.=6164,103%
Cc1cn(-c2cc(NC(=O)c3ccc(C)c(Nc4nccc(-c5cccnc5)n4)c3)cc(C(F)(F)F)c2)cn1 [Nilotinib],remaining activity at 1.25 µM,[1]; Well no.=2793,111%
same,remaining activity at 3.75 µM,[2]; Well no.=2793,107%
O=C(c1ccccc1)c1ccc2nc(NC(=O)c3csc(C4CCN(c5ncnc6ccsc56)CC4)n3)[nH]c2c1 [SC75741],remaining activity at 1.25 µM,[1]; Well no.=6922,100%
same,remaining activity at 3.75 µM,[2]; Well no.=6922,101%
